Source: ChEMBL document CHEMBL4308864, “Targeting tyrosine kinase: Development of acridone - pyrrole - oxindole hybrids against human breast cancer” (2019)

What was measured:
Assay type in all cases: functional
[1] = system: HL-60(TB); assay: Growth inhibition of human HL-60(TB) cells assessed as cell growth at 10^-5 M incubated for 48 hrs by sulforhodamine B assay relative to control; settings: HL-60, 48 h, read-out: Activity
[2] = system: MOLT-4; assay: Growth inhibition of human MOLT4 cells assessed as cell growth at 10^-5 M incubated for 48 hrs by sulforhodamine B assay relative to control; settings: MOLT-4, 48 h, read-out: Activity
[3] = system: A549; assay: Growth inhibition of human A549/ATCC cells assessed as cell growth at 10^-5 M incubated for 48 hrs by sulforhodamine B assay relative to control; settings: A549, 48 h, read-out: Activity
[4] = system: EKVX; assay: Growth inhibition of human EKVX cells assessed as cell growth at 10^-5 M incubated for 48 hrs by sulforhodamine B assay relative to control; settings: read-out: Activity
[5] = system: HOP-92; assay: Growth inhibition of human HOP92 cells assessed as cell growth at 10^-5 M incubated for 48 hrs by sulforhodamine B assay relative to control; settings: HOP-92, 48 h, read-out: Activity
[6] = system: NCI-H322M; assay: Growth inhibition of human NCI-H322M cells assessed as cell growth at 10^-5 M incubated for 48 hrs by sulforhodamine B assay relative to control; settings: read-out: Activity
[7] = system: HCT-116; assay: Growth inhibition of human HCT116 cells assessed as cell growth at 10^-5 M incubated for 48 hrs by sulforhodamine B assay relative to control; settings: HCT-116, 48 h, read-out: Activity
[8] = system: HCT-15; assay: Growth inhibition of human HCT15 cells assessed as cell growth at 10^-5 M incubated for 48 hrs by sulforhodamine B assay relative to control; settings: HCT-15, 48 h, read-out: Activity
[9] = system: KM12; assay: Growth inhibition of human KM12 cells assessed as cell growth at 10^-5 M incubated for 48 hrs by sulforhodamine B assay relative to control; settings: KM12, 48 h, read-out: Activity
[10] = system: SW-620; assay: Growth inhibition of human SW620 cells assessed as cell growth at 10^-5 M incubated for 48 hrs by sulforhodamine B assay relative to control; settings: SW-620, 48 h, read-out: Activity
[11] = system: SF-268; assay: Growth inhibition of human SF268 cells assessed as cell growth at 10^-5 M incubated for 48 hrs by sulforhodamine B assay relative to control; settings: SF-268, 48 h, read-out: Activity
[12] = system: SF-295; assay: Growth inhibition of human SF295 cells assessed as cell growth at 10^-5 M incubated for 48 hrs by sulforhodamine B assay relative to control; settings: SF-295, 48 h, read-out: Activity
[13] = system: SNB-19; assay: Growth inhibition of human SNB19 cells assessed as cell growth at 10^-5 M incubated for 48 hrs by sulforhodamine B assay relative to control; settings: SNB-19, 48 h, read-out: Activity
[14] = system: U-251; assay: Growth inhibition of human U251 cells assessed as cell growth at 10^-5 M incubated for 48 hrs by sulforhodamine B assay relative to control; settings: U-251, 48 h, read-out: Activity
[15] = system: Malme-3M; assay: Growth inhibition of human MALME-3M cells assessed as cell growth at 10^-5 M incubated for 48 hrs by sulforhodamine B assay relative to control; settings: read-out: Activity
[16] = system: M14; assay: Growth inhibition of human M14 cells assessed as cell growth at 10^-5 M incubated for 48 hrs by sulforhodamine B assay relative to control; settings: M14, 48 h, read-out: Activity
[17] = system: SK-MEL-2; assay: Growth inhibition of human SK-MEL-2 cells assessed as cell growth at 10^-5 M incubated for 48 hrs by sulforhodamine B assay relative to control; settings: SK-MEL-2, 48 h, read-out: Activity
[18] = system: SK-MEL-28; assay: Growth inhibition of human SK-MEL-28 cells assessed as cell growth at 10^-5 M incubated for 48 hrs by sulforhodamine B assay relative to control; settings: SK-MEL-28, 48 h, read-out: Activity
[19] = system: UACC-62; assay: Growth inhibition of human UACC62 cells assessed as cell growth at 10^-5 M incubated for 48 hrs by sulforhodamine B assay relative to control; settings: UACC-62, 48 h, read-out: Activity
[20] = system: IGROV-1; assay: Growth inhibition of human IGROV1 cells assessed as cell growth at 10^-5 M incubated for 48 hrs by sulforhodamine B assay relative to control; settings: IGROV-1, 48 h, read-out: Activity
[21] = system: SK-OV-3; assay: Growth inhibition of human SKOV3 cells assessed as cell growth at 10^-5 M incubated for 48 hrs by sulforhodamine B assay relative to control; settings: SK-OV-3, 48 h, read-out: Activity
[22] = system: A498; assay: Growth inhibition of human A498 cells assessed as cell growth at 10^-5 M incubated for 48 hrs by sulforhodamine B assay relative to control; settings: A498, 48 h, read-out: Activity
[23] = system: ACHN; assay: Growth inhibition of human ACHN cells assessed as cell growth at 10^-5 M incubated for 48 hrs by sulforhodamine B assay relative to control; settings: read-out: Activity
[24] = system: RXF 393; assay: Growth inhibition of human RXF393 cells assessed as cell growth at 10^-5 M incubated for 48 hrs by sulforhodamine B assay relative to control; settings: RXF 393, 48 h, read-out: Activity
[25] = system: UO-31; assay: Growth inhibition of human UO31 cells assessed as cell growth at 10^-5 M incubated for 48 hrs by sulforhodamine B assay relative to control; settings: UO-31, 48 h, read-out: Activity
[26] = system: MCF7; assay: Growth inhibition of human MCF7 cells at 10^-5 M incubated for 48 hrs by sulforhodamine B assay relative to control; settings: MCF7, 48 h, read-out: GI
[27] = system: T47D; assay: Growth inhibition of human T47D cells at 10^-5 M incubated for 48 hrs by sulforhodamine B assay relative to control; settings: read-out: GI
[28] = system: MDA-MB-468; assay: Growth inhibition of human MDA-MB-468 cells at 10^-5 M incubated for 48 hrs by sulforhodamine B assay relative to control; settings: MDA-MB-468, 48 h, read-out: GI

For `O=C1NC(=O)C(=Cc2cccn2CCCn2c3ccccc3c(=O)c3ccccc32)C(=O)N1`, the growth at 10 µM [1] was 94%, the growth at 10 µM [2] was 93.7% and the growth at 10 µM [3] was 94.6%. It also gave a growth at 10 µM [4] of 98%, a growth at 10 µM [5] of 87.8% and a growth at 10 µM [6] of 98.5%. For the same compound, the growth at 10 µM [7] was 86%, the growth at 10 µM [8] was 96.5% and the growth at 10 µM [9] was 99.6%. It also gave a growth at 10 µM [10] of 107%, a growth at 10 µM [11] of 99.7% and a growth at 10 µM [12] of 98.7%. For the same compound, the growth at 10 µM [13] was 94.2%, the growth at 10 µM [14] was 92.5% and the growth at 10 µM [15] was 114%. It also gave a growth at 10 µM [16] of 102%, a growth at 10 µM [17] of 109% and a growth at 10 µM [18] of 110%. The growth at 10 µM [19] was 87.1%, the growth at 10 µM [20] was 101% and the growth at 10 µM [21] was 98.7%. For the same compound, the growth at 10 µM [22] was 98.5%, the growth at 10 µM [23] was 102% and the growth at 10 µM [24] was 95.9%. The growth at 10 µM [25] was 75.9%, the inhibition of growth at 10 µM [26] was 12% and the inhibition of growth at 10 µM [27] was 15%. It also gave an inhibition of growth at 10 µM [28] of 7%.
`O=C1NC(=O)C(=Cc2cccn2CCCCCn2c3ccccc3c(=O)c3ccccc32)C(=O)N1` gave a growth at 10 µM [1] of 92.2%, a growth at 10 µM [2] of 93.3% and a growth at 10 µM [3] of 100%. The growth at 10 µM [4] was 105%, the growth at 10 µM [5] was 90.4% and the growth at 10 µM [6] was 98.3%. The growth at 10 µM [7] was 82.2%, the growth at 10 µM [8] was 92.8% and the growth at 10 µM [9] was 103%. It also gave a growth at 10 µM [10] of 105%, a growth at 10 µM [11] of 102% and a growth at 10 µM [12] of 99.4%. For the same compound, the growth at 10 µM [13] was 101%, the growth at 10 µM [14] was 96.8% and the growth at 10 µM [15] was 119%. The growth at 10 µM [16] was 102%, the growth at 10 µM [17] was 107% and the growth at 10 µM [18] was 111%. It also gave a growth at 10 µM [19] of 90.8%, a growth at 10 µM [20] of 99.4% and a growth at 10 µM [21] of 108%. It also gave a growth at 10 µM [22] of 104%, a growth at 10 µM [23] of 105% and a growth at 10 µM [24] of 110%. The growth at 10 µM [25] was 79.4%, the inhibition of growth at 10 µM [26] was 15% and the inhibition of growth at 10 µM [27] was 13%. For the same compound, the inhibition of growth at 10 µM [28] was 0%.
For `O=C1Nc2ccccc2/C1=C/c1cccn1CCCCn1c2ccccc2c(=O)c2ccccc21`, the growth at 10 µM [1] was 60.2%, the growth at 10 µM [2] was 47.7% and the growth at 10 µM [3] was 86.3%. For the same compound, the growth at 10 µM [4] was 86.1%, the growth at 10 µM [5] was 59.5% and the growth at 10 µM [6] was 101%. It also gave a growth at 10 µM [7] of 74.2%, a growth at 10 µM [8] of 31.7% and a growth at 10 µM [9] of 13%. It also gave a growth at 10 µM [10] of 98.8%, a growth at 10 µM [11] of 83.1% and a growth at 10 µM [12] of 101%. It also gave a growth at 10 µM [13] of 98.4%, a growth at 10 µM [14] of 95.1% and a growth at 10 µM [15] of 91.9%. It also gave a growth at 10 µM [16] of 85.1%, a growth at 10 µM [17] of 84% and a growth at 10 µM [18] of 105%. It also gave a growth at 10 µM [19] of 51.8%, a growth at 10 µM [20] of 77.3% and a growth at 10 µM [21] of 94.6%. The growth at 10 µM [22] was 109%, the growth at 10 µM [23] was 76.3% and the growth at 10 µM [24] was 88.1%. It also gave a growth at 10 µM [25] of 49.6%, an inhibition of growth at 10 µM [26] of 96% and an inhibition of growth at 10 µM [27] of 95%. It also gave an inhibition of growth at 10 µM [28] of 49%.
Work on `O=C1NC(=O)C(=Cc2cccn2CCCCCCn2c3ccccc3c(=O)c3ccccc32)C(=O)N1` yielded a growth at 10 µM [1] of 91.3%, a growth at 10 µM [2] of 79.6% and a growth at 10 µM [3] of 95.6%. It also gave a growth at 10 µM [4] of 100%, a growth at 10 µM [5] of 85% and a growth at 10 µM [6] of 94.1%. It also gave a growth at 10 µM [7] of 71.2%, a growth at 10 µM [8] of 90.3% and a growth at 10 µM [9] of 97.1%. For the same compound, the growth at 10 µM [10] was 96.9%, the growth at 10 µM [11] was 97% and the growth at 10 µM [12] was 97.6%. The growth at 10 µM [13] was 94.2%, the growth at 10 µM [14] was 90.5% and the growth at 10 µM [15] was 112%. It also gave a growth at 10 µM [16] of 94.4%, a growth at 10 µM [17] of 107% and a growth at 10 µM [18] of 111%. The growth at 10 µM [19] was 82.1%, the growth at 10 µM [20] was 91.5% and the growth at 10 µM [21] was 99.8%. The growth at 10 µM [22] was 93.1%, the growth at 10 µM [23] was 103% and the growth at 10 µM [24] was 106%. For the same compound, the growth at 10 µM [25] was 70.3%, the inhibition of growth at 10 µM [26] was 24% and the inhibition of growth at 10 µM [27] was 25%. For the same compound, the inhibition of growth at 10 µM [28] was 5%.
Compound `O=C1NC(=O)C(=Cc2cccn2CCCCn2c3ccccc3c(=O)c3ccccc32)C(=O)N1` has a growth at 10 µM [1] of 60.1%, a growth at 10 µM [2] of 70.4% and a growth at 10 µM [3] of 94.6%. The growth at 10 µM [4] was 100%, the growth at 10 µM [5] was 86.1% and the growth at 10 µM [6] was 97.3%. The growth at 10 µM [7] was 76.7%, the growth at 10 µM [8] was 81.4% and the growth at 10 µM [9] was 74.3%. For the same compound, the growth at 10 µM [10] was 87.9%, the growth at 10 µM [11] was 85.7% and the growth at 10 µM [12] was 78.5%. The growth at 10 µM [13] was 75.4%, the growth at 10 µM [14] was 76% and the growth at 10 µM [15] was 95.6%. For the same compound, the growth at 10 µM [16] was 82.5%, the growth at 10 µM [17] was 92.9% and the growth at 10 µM [18] was 95.8%. For the same compound, the growth at 10 µM [19] was 66.1%, the growth at 10 µM [20] was 72.1% and the growth at 10 µM [21] was 100%. It also gave a growth at 10 µM [22] of 88.1%, a growth at 10 µM [23] of 92.8% and a growth at 10 µM [24] of 81.4%. For the same compound, the growth at 10 µM [25] was 63.4%, the inhibition of growth at 10 µM [26] was 43% and the inhibition of growth at 10 µM [27] was 43%. The inhibition of growth at 10 µM [28] was 40%.
